Reference: PubChem BioAssay (NCI)
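Grown in 96-well plates, cells were treated for 48 hours with each compound at five concentrations. Insufficient inhibition: endpoint recorded as highest concentration tested. TGI is the concentration that stops growth completely.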

Assays:
Experiment in all cases: inhibition of tumour cell growth, NCI panel, 48 h
COLO 205 colon = system: COLO 205 colon
HS 578T breast = system: HS 578T breast
DLD-1 colon = system: DLD-1 colon
DMS 114 small cell lung = system: DMS 114 small cell lung
DMS 273 small cell lung = system: DMS 273 small cell lung
HOP-18 NSCLC = system: HOP-18 NSCLC
KM20L2 colon = system: KM20L2 colon
LXFL 529 NSCLC = system: LXFL 529 NSCLC
M19-MEL melanoma = system: M19-MEL melanoma
SNB-78 CNS = system: SNB-78 CNS
XF 498 CNS = system: XF 498 CNS
RXF-631 renal = system: RXF-631 renal

| SMILES | TGI (COLO 205 colon) [µM] | TGI (HS 578T breast) [µM] | other results |
| --- | --- | --- | --- |
| O=C1Nc2n[nH]c(=S)n2NC12c1ccccc1-c1ccccc12 | > 100 | > 100 | – |
| CN(CCO)c1nc(=O)c2c(n1C1OC(CO)C(O)C(O)C1O)CCCC2 (stereo unspecified) | > 100 | – | TGI (DLD-1 colon): > 100 µM; TGI (DMS 114 small cell lung): > 100 µM; TGI (DMS 273 small cell lung): > 100 µM; TGI (HOP-18 NSCLC): > 100 µM; TGI (KM20L2 colon): > 100 µM; TGI (LXFL 529 NSCLC): > 100 µM; TGI (M19-MEL melanoma): > 100 µM; TGI (SNB-78 CNS): > 100 µM; TGI (XF 498 CNS): > 100 µM |
| C[C@@]12C[C@@H](c3ccccc3O1)N1CCCSC1=N2 | > 100 | > 100 | – |
| O=c1[nH]nc(-c2ccccc2)n1-n1cccc1 | > 100 | > 100 | – |
| O=C(OCC1CC(C2(O)CCCCC2)C(=O)O1)c1ccccc1 (stereo unspecified) | > 100 | – | – |
| CC(C)OP(=O)(OC(C)C)/C(=N/Nc1ccc([N+](=O)[O-])cc1)NNC(=O)c1ccccc1 | > 100 | – | TGI (DLD-1 colon): > 100 µM; TGI (DMS 114 small cell lung): 43.1 µM; TGI (KM20L2 colon): > 100 µM; TGI (LXFL 529 NSCLC): 68.5 µM; TGI (M19-MEL melanoma): 41.2 µM; TGI (SNB-78 CNS): 80.4 µM; TGI (XF 498 CNS): 48.1 µM |
| C[C@H]1[C@H](C)CC[C@]2(C(=O)O)CCC3(COC(=O)/C=C/c4ccc(O)cc4)C(=CCC4[C@@]5(C)CC[C@H](O)C(C)(C)C5CC[C@]43C)[C@H]12 (stereo partly specified) | 17.9 | – | TGI (DLD-1 colon): 15.8 µM; TGI (DMS 114 small cell lung): 32 µM; TGI (DMS 273 small cell lung): 25.9 µM; TGI (HOP-18 NSCLC): 33.9 µM; TGI (KM20L2 colon): 16.4 µM; TGI (LXFL 529 NSCLC): 24.8 µM; TGI (M19-MEL melanoma): > 100 µM; TGI (RXF-631 renal): 30.4 µM; TGI (SNB-78 CNS): > 100 µM |
| COc1cc(C2SCC(=O)N2c2ccc(Cl)cc2)cc(OC)c1OC (stereo unspecified) | > 56.8 | > 100 | – |
| CCCCCCC(O)C(=O)OC1C2C(CC1(C)C)C(O)C13OC1C(O)C1(CO1)[C@@]23C (stereo partly specified) | > 100 | 79.3 | – |
| O=C(/C=C/c1ccc(Cl)cc1)c1nc2ccccc2[nH]1 | 50.4 | > 100 | – |
| CCOC(=O)Cc1ccc(Nc2nc3cc(F)c(F)cc3nc2C(=O)OCC)cc1 | > 100 | > 100 | – |
| CCOC(=O)c1c(Br)c(-c2ccc([N+](=O)[O-])cc2)c(Br)n1C | > 10 | > 10 | – |
| CC1=C(N2CC2)C(=O)C(C)=C(N2CC2)C1=O | 0.822 | – | TGI (DLD-1 colon): 0.829 µM; TGI (DMS 114 small cell lung): 0.471 µM; TGI (DMS 273 small cell lung): 1.38 µM; TGI (HOP-18 NSCLC): 11.4 µM; TGI (KM20L2 colon): 0.568 µM; TGI (LXFL 529 NSCLC): 0.431 µM; TGI (M19-MEL melanoma): 0.92 µM; TGI (SNB-78 CNS): > 100 µM; TGI (XF 498 CNS): 0.3 µM |
| CCN(CC)CCC(=O)Nc1ccc2sc3ccccc3c(=O)c2n1 | 29.1 | 46.1 | – |
| O=C(O)c1ccccc1/C=N\N(CCO)C1=NCCN1 | > 100 | > 100 | – |
| CC(/C=C1\CCC(CN(C)C)C1=O)c1cccc(Br)c1 (stereo unspecified) | 37.4 | – | TGI (DLD-1 colon): 35.1 µM; TGI (DMS 114 small cell lung): 54.8 µM; TGI (HOP-18 NSCLC): 33.9 µM; TGI (KM20L2 colon): 45.4 µM; TGI (LXFL 529 NSCLC): 17.1 µM; TGI (M19-MEL melanoma): 50.2 µM; TGI (RXF-631 renal): 16.9 µM; TGI (SNB-78 CNS): 44.7 µM; TGI (XF 498 CNS): 35.1 µM |
| CC(C)C1CCC(=O)CC1CCCCC1CC(=O)CC1O[Si](C)(C)C(C)(C)C (stereo unspecified) | 21.5 | 9.89 | – |
| O=C(O)c1ccc(Nc2nc3ccc(C(F)(F)F)cc3nc2-c2ccccc2)cc1 | – | > 100 | – |
| COc1c(N2CCCCC2)c2c(=O)c3ccccc3oc2c2c3ccccc3n(C)c12 | > 100 | > 100 | – |
| O=C(Nc1ccccc1)c1cc2cc(CCl)ccc2oc1=O | > 100 | 63.9 | – |
| Cc1ccc(C(CCO)CCO)nc1 | > 100 | > 100 | – |

| SMILES | TGI (COLO 205 colon) [µM] | TGI (HS 578T breast) [µM] | other results |
| --- | --- | --- | --- |
| CC(=O)O[C@H]1C(=O)[C@@]2(C)[C@H]([C@H](OC(=O)c3ccccc3)[C@]3(O)C[C@H](OC(=O)[C@H](O)[C@@H](NC(=O)OC(C)(C)C)c4ccco4)C(C)=C1C3(C)C)[C@]1(OC(C)=O)CO[C@@H]1C[C@@H]2O | < 0.005 | < 0.005 | – |
| C/C1=C\CC[C@@]2(C)O[C@@H]2C[C@@H]2[C@H](C/C(C)=C/CC1)OC(=O)[C@]21CO1 | > 100 | > 100 | – |
| CCOC(=O)CN1C(=O)c2c(NC(=O)C(=O)O)cccc2S1(=O)=O | > 100 | > 100 | – |
| COc1ccccc1NC(=O)C(=O)C(c1cnc2ccc([N+](=O)[O-])cc2n1)[N+](=O)[O-] (stereo unspecified) | > 100 | – | TGI (DLD-1 colon): > 100 µM; TGI (DMS 114 small cell lung): 66.4 µM; TGI (DMS 273 small cell lung): > 100 µM; TGI (HOP-18 NSCLC): > 100 µM; TGI (KM20L2 colon): > 100 µM; TGI (LXFL 529 NSCLC): > 100 µM; TGI (M19-MEL melanoma): > 100 µM; TGI (RXF-631 renal): > 100 µM; TGI (SNB-78 CNS): > 100 µM; TGI (XF 498 CNS): > 100 µM |
| O=C(O)CCC1(CCC(=O)O)CCCCCCCCC(CCC(=O)O)(CCC(=O)O)C(=O)C1=O | > 100 | > 100 | – |
| Cc1nnc(N)nc1C/C=C/C(C)Sc1ccc(Cl)cc1 (stereo unspecified) | 49.8 | > 75.9 | – |
| CC(C)(CN1CCCCC1)C(=O)CC(SCCS(=O)(=O)O)c1ccccc1 (stereo unspecified) | 27.6 | 90.1 | – |
| N#Cc1c2c(c(Nc3cccc(C(F)(F)F)c3)n3c1nc1ccccc13)CCCC2 | > 100 | – | – |
| O=C1NC(NNc2ccccc2)=N/C1=C\c1ccco1 | 25.1 | 74.5 | – |
| COc1ccc(C(SCCO)(c2ccc(OC)cc2)c2ccc(OC)cc2)cc1 | 25.7 | 44.7 | – |
| COc1ccc2nc3c([N+](=O)[O-])ccc4c3c(c2c1)N=CN4CCN(C)C | 10.1 | 28.1 | – |
| CCOC(=O)C(CCSC)(CCSC)C(=O)OCC | > 100 | > 100 | – |
| Cc1cc2nc3c(C#N)c4c(c(Cl)n3c2cc1C)CCC4 | > 100 | – | – |
| CC(NNC(=S)N1CCCC1)c1cccnn1 (stereo unspecified) | > 100 | > 100 | – |
| CCCC1(N2C(=O)c3ccc4c5c(ccc(c35)C2=O)N(C2(CCC)CCCCC2)C4=O)CCCCC1 | > 100 | – | – |
| O=C1/C(=C/c2cccc([N+](=O)[O-])c2)Cc2ccccc21 | > 100 | > 100 | – |
| Cc1cnc2c(c1)C(=O)N(c1ccc(Br)cc1)S2(=O)=O | > 100 | > 100 | – |
| S=C1C(CCCOCc2ccccc2)C2CCCC23CC2(CCN13)OCCS2 (stereo unspecified) | > 10 | > 10 | – |
| CC(=O)OC1CC2C(=O)CC1(C)C2(C)C (stereo unspecified) | > 100 | > 100 | – |
| CC(Cn1c(=O)oc2ccccc21)N(C)C (stereo unspecified) | > 100 | > 100 | – |
| Cn1c2ccccc2c(=NNc2ccc(S(=O)(=O)N=C(N)N)cc2)c2ccccc21 | 18.7 | 49.7 | – |
